Read-outs that look alike come from different tables or passages of the source. Marks after values point to notes of the source that are not given here.

The values below come from patent US20110306638A1, “BENZISOXAZOLE PIPERIDINYL DERIVATIVES, PHARMACEUTICAL COMPOSITIONS COMPRISING THE DERIVATIVES AND THEIR USE” (NHWA PHARMA. CORPORATION, priority 2008, published 2011).

Test [1] deals with T1, 5-HT2A receptor (Homo sapiens, UniProt P28223).
T1 construct: expressed in transfected cells; host or cells: HEK293
As to the kind of experiment: In-vitro competitive binding to 5-HT2A receptor, [3H]-Ketanserin, transformed HEK293 cells. The note with it: for inhibition at 10 µM: read-out: 5-HT2A [3H]-Ketanserin inhibition percentage; for IC50 / Ki: affinity to 5-HT2A receptor, concentration gradient test; for inhibitory activity on 5-HT2A (in words): compared with Aripiprazole. The procedure:
All test samples were dissolved in DMSO at a concentration of 0.01 mol/L, and then diluted with deionized water to 100 umol/L.
HEK293 cells were transformed with plasmid carriers containing the gene coding for 5-HT2A receptor protein by using calcium phosphate transformation. Stable cell strains which could stably express 5-HT2A receptor protein were obtained from the transformed cells by cultivating in a culture media containing G418, selecting monoclones of the cell and performing radioactive ligand binding assay.
Beckman LS 6500 Scintillation Counter.
HEK-293 cells were infected with recombined viruses containing various genes described above. […] Cells were centrifuged at 1000 rpm for 5 min Culture media was discarded, and cell bodies were collected and stored at −20° C. in a freezer. The cell bodies were resuspended with Tris-HCl reaction buffer during assay.
After incubation at 37° C. for 15 min, the reaction mixture was immediately transferred into ice bath to terminate the reaction; the reaction mixture was quickly filtered through GF/C glass cellulose filter on a Millipore cell sample collector, and was then washed with eluting solution (50 mM Tris-HCl, PH 7.7, 3 ml×3) and dried in a microwave for 8-9 min. The filter was transferred into a 0.5 ml centrifuge tube, and 500 μl lipid soluble scintillation fluid was added. The centrifuge tube was allowed to stand in darkness for more than 30 min. Radioactivity was determined by counting Inhibition percentage of each compound on isotope ligand binding was calculated according to the following equation:
inhibition percentage(I %)=cpm of overall binding tube−cpm of compound/cpm of overall binding tube−cpm of nonspecific binding tube×100%.
Each compound was tested in two duplicate test tubes and two separate tests were performed.

The test system of test [2] is Kunming mice. As to the kind of experiment: Acetic acid-induced abdominal writhing test in mice. The format is in vivo. As for the experimental part: Kunming mice, SPF KM mice purchased from […] SLAC LABORATORY ANIMAL CO. LTD and kept in normal environment.
The compounds were dissolved in water for injection at a concentration of 4 mg/ml, 2 mg/ml and 1 mg/ml and were given intragastrically to animals.
(§1) Three different doses (10, 20, and 40 mg/kg) were administered to the test groups.
Aspirin was used as a positive control and acetic acid writhing test was used.
30 mice (half male and half female) weighing 18-23 g were divided into five groups, including negative control group, positive control group, low dose group, medium dose group and high dose group:
Mice in test group received test drug (10 mg/kg, 20 mg/kg, 40 mg/kg) via intragastric administration. Negative control group received physiological saline (20 ml/kg) via oral administration. Positive control group received aspirin (200 mg/kg) via oral administration. One hour later, each group received 0.7% acetic acid 10 ml/kg intraperitoneally. Five minutes later, the number of writhes was counted within the subsequent 15 min period; inhibition percentage of writhing response in each test group was calculated by the following equation: […]
Background: In writhing tests, fewer writhes than in controls are read as antinociception.

In test [3] the test system is Kunming mice. Description: Hot-plate test in mice. In kind it is in vivo. The note with it: 1 h post dose. The procedure: Kunming mice, SPF KM mice were purchased from […] SLAC LABORATORY ANIMAL CO. LTD and kept in normal environment.
The compounds were dissolved in water for injection at a concentration of 4 mg/ml, 2 mg/ml and 1 mg/ml and were given subcutaneously to animals.
as §1
Morphine was used as a positive control and hot plate test was used.
30-40 mice (half male and half female) weighed from 18 to 23 gram were used. First, each mouse was placed on a hot plat at 55° C. to determine basic pain threshold for 2-3 times. Those animals with basic pain threshold of 5-30 s were qualified, unqualified mice were not used. 30 qualified mice were divided into five groups, including negative control group, positive control group, low-dose group, medium-dose group and high-dose group:
Mice in test groups received test sample solution (10 mg/kg, 20 mg/kg, 40 mg/kg) via subcutaneous injection in the neck. Positive control group received subcutaneous injection of morphine (2 mg/kg). One hour later, pain threshold values were determined for mice in each group as post-drug pain threshold. Percentage increase in pain threshold was calculated according to the following equation: […]
A general note: Thermal pain tests record how soon the animal reacts.

For test [4], the system named is mice. As to the kind of experiment: Sedative effects in mice (spontaneous activities). In kind it is in vivo. Details: unit not given here. The note with it: single dose 20 mg/kg. The procedure:
Spontaneous activities of the mice were recorded by alternating current tube, Sedative effects were tested after single dose (20 mg/kg).

Test [5] has as its target opioid receptor subtype μ (Homo sapiens, UniProt P35372). Description: Competitive binding to opioid receptor subtype μ, [3H]Diprenorphine. The note with it: tested concentration 10^−5 mol/L; read-out: μ inhibition percentage of competitive binding. As for the experimental part:
(§2) The respective test compounds were added to the sample tube (final concentration of 10^−5M), incubated at 37° C. for 30 min and placed in ice bath to terminate the reaction. The reaction mixture was filtered through GF/C (Whatman) glass fiber filter by vacuum filtration on a Millipore sample collector. The filter was washed three times with 50 mM Tris-HCl (pH7.4), each with 4 ml; dried and transferred into a 0.5 ml Eppendorf tube, in which 0.5 ml lipophilic scintillation fluid was added. Radioactivity was detected by a LS6500 scintillation counter. Each concentration had three duplicate test tubes and each separate test was repeated 3 to 4 times.
(§3) Specific binding CMP value for each sample tube=overall binding CPM value for each sample tube−CPM value of non-specific binding tube.
(§4) [Inhibition percentage of competitive binding between the test compound and different opioid receptor subtypes (%)=(100%−specific binding (CPM value)of sample tube/specific binding(CPM value)of solvent group×100%)]
(§5) Average was taken for each test drug from three duplicate tubes; each test was repeated two or more times.

Test [6] has as its target opioid receptor subtype δ (Homo sapiens, UniProt P41143). Description: Competitive binding to opioid receptor subtype δ, [3H]Diprenorphine. As to conditions: tested concentration 10^−5 mol/L; read-out: δ inhibition percentage of competitive binding. The procedure:
as §2, §3, §4
Average was taken for each test drug from three duplicate tubes; each test was repeated two or more times. Data were presented as mean±SE and statistical comparison was made by ANOVA.

Test [7] concerns the target opioid receptor subtype κ (Homo sapiens, UniProt P41145). As to the kind of experiment: Competitive binding to opioid receptor subtype κ, [3H]Diprenorphine. As to conditions: tested concentration 10^−5 mol/L; read-out: κ inhibition percentage of competitive binding. The procedure: as §2, §3, §4, §5
The target of test [8] is T2, 5-HT reuptake by brain synapses (Rattus norvegicus, UniProt P31652).
T2 construct: forehead cortex was obtained for [^3H]5-HT, [^3H]NA reuptake test; from tissue; host or cells: rat (SD) forebrain cortex synaptosomes
As to the kind of experiment: [3H]5-HT reuptake test in rat brain synapses. The format is biochemical. The note with it: for inhibition at 10 µM: final concentration 10 umol/L, rat brain synapses, read-out: 5-HTU [3H] 5-HT reuptake inhibition percentage Mean; for inhibitory activity on 5-HT reuptake (in words): at 10 μmol/L, compared with Dutoxetine. As for the experimental part: The method was as follows:
Male SD rats were killed by cervical dislocation, heads were immediately cut and brains were obtained and put on ice, related brain tissues were dissected (forehead cortex was obtained for [^3H]5-HT, [^3H]NA reuptake test, corpus striatum was obtained for [^3H]DA reuptake).
After the sample was weighed, 10 folds (V/W) ice cold 0.32 mol/L sucrose solution was added.
According to [a. […] 5-HT was added and after incubation in water bath at 37° C. for 10 min, the reaction mixture was immediately taken out of the water bath and 2 ml ice cold 150 mmol/L Tris-HCl was added to terminate the reaction. The sample was collected on a round glass fiber filter by vacuum filtration and washed three times with 3 ml ice cold Tris-HCl buffer. The filter membrane was removed, dried in a far-infrared oven for 15 min, then transferred into a EP tube, in which 1.5 ml scintillation fluid was added, left overnight and detected by a scintillation counter. The test sample was not added into solvent controlled overall binding tube or non-specific binding tube. 50 μl solvent was added into the overall binding tube, and in [^3H] 5-HT reuptake test, 600 μmol/L cocaine was added into the non-specific binding tube.

The mark [9] stands for this setting: 10 mg/kg intragastric administration.
Where [10] appears, read: 20 mg/kg intragastric administration.
The mark [11] stands for this setting: 40 mg/kg intragastric administration.

Broadly, the inhibition is the share of the control response that was lost under treatment. With `Fc1ccc2c(C3CCN(CCCOn4nnc5ccc(Cl)cc54)CC3)noc2c1` [IV-4, 3-(1-(3-(6-chloro-1H-benzo[d][1,2,3]triazol-1-yloxy)propyl)piperidin-4-yl)-6-fluorobenzo[d]isoxazole], the inhibition at 10 µM in test [1] turned out to be 97.4%; in test [5], 34.3 ± 1.3%; in test [6], 0%; in test [7], 37.3 ± 1.7%. Also, the “Inhibition percentage of writhing response” value (shortened to “Inhibition percentage”) was 88.33% in test [2] (setting [9]), 99.44% in test [2] (setting [10]) and 97.78% in test [2] (setting [11]). Also, the results for the “Percentage increase in pain threshold” value in test [3] (10 mg/kg S.c.), in test [3] (20 mg/kg S.c.) and in test [3] (40 mg/kg S.c.) were 51.63%, 79.36* % and 89.96* %, respectively. For the same compound, the Sedative effect in test [4] is listed as 70.8*.
The term IC50 denotes the concentration that gives 50% inhibition. Broadly, the Ki is the equilibrium dissociation constant of an inhibitor or competing ligand from its target. Compound `Fc1ccc2c(C3CCN(CCCCn4cnc5ccc(F)cc54)CC3)noc2c1` [III-2, 6-fluoro-3-(1-(4-(6-fluoro-1H-benzo[d]imidazol-1-yl)butyl)piperidin-4-yl)benzo[d]isoxazole] registered an IC50 in test [1] of 3.99 nM. Also, the Ki in test [1] stood at 2.69 nM. Also, the inhibition at 10 µM in test [1] (final concentration 10 umol/L) amounted to 99.1%; in test [8], 86%; in test [5], 59.3 ± 0.7%; in test [6], 0%; in test [7], 44.1 ± 0.2%. The “Inhibition percentage” value is reported as 97.61* % in test [2] (setting [9]), 100.0** % in test [2] (setting [10]) and 100.0** % in test [2] (setting [11]). Further, the results for the “Percentage increase in pain threshold” value in test [3] (10 mg/kg S.c.), in test [3] (20 mg/kg S.c.) and in test [3] (40 mg/kg S.c.) were 92.55* %, 172.2* % and 97.22%, respectively. Moreover, the Sedative effect in test [4] is listed as 64**.
In turn, `N#Cc1ccc2cnn(CCCCN3CCC(c4noc5cc(F)ccc45)CC3)c2c1` [II-14, 1-(4-(4-(6-fluorobenzo[d]isoxazol-3-yl)piperidin-1-yl)butyl)-1H-indazole-6-carbonitrile] gave an IC50 in test [1] of 3.09 nM. Further, in test [1], the Ki came to 2.06 nM. Besides, in test [1], the “inhibitory activity on 5-HT2A (in words)” value is recorded as “potent inhibitory activities”. Further, the inhibition at 10 µM in test [1] (final concentration 10 umol/L) turned out to be 99.7%; in test [8], 88.3%; in test [5] it was 41.9 ± 0.5%; in test [6], 0%; in test [7] it was 7 ± 0.6%. The “inhibitory activity on 5-HT reuptake (in words)” value in test [8] is reported as “potent inhibitory activities”. The “Inhibition percentage” value in test [2] (setting [9]) is 77.70* %; in test [2] (setting [10]), 69.03%; in test [2] (setting [11]), 85.66** %. Besides, the Sedative effect in test [4] stood at 20.
Take `N#Cc1ccc2ccn(CCCN3CCC(c4noc5cc(F)ccc45)CC3)c2c1` [II-6, 1-(3-(4-(6-fluorobenzo[d]isoxazol-3-yl)piperidin-1-yl)propyl)-1H-indole-6-carbonitrile]: the IC50 in test [1] amounted to 4.78 nM. This compound also came in with a Ki in test [1] of 3.22 nM. Also, the “inhibitory activity on 5-HT2A (in words)” value in test [1] is recorded as “potent inhibitory activities”. The inhibition at 10 µM in test [1] (final concentration 10 umol/L) was determined as 100%; in test [8], 96.7%. Besides, the “inhibitory activity on 5-HT reuptake (in words)” value in test [8] is listed as “potent inhibitory activities”. For the same compound, the figures for the “Inhibition percentage” value in test [2] (setting [9]), in test [2] (setting [10]) and in test [2] (setting [11]) were 74.09* %, 69.55% and 100.0** %, respectively. The “Percentage increase in pain threshold” value in test [3] (10 mg/kg S.c.) is given as 41.11%; in test [3] (20 mg/kg S.c.), 73.68* %; in test [3] (40 mg/kg S.c.), 72.38* %. In test [4], the Sedative effect was 75**.
